{"source": "patent US6268377A", "about": "“Method for treating androgen-related conditions” (Merck & Co., Inc., priority 1999, dated 2001)", "key": {"5α-reductase 2": {"system": "5α-reductase 2", "settings": "isozyme predominating in the prostate, cited from earlier work"}, "[1]": {"system": "men with clinical benign prostatic hyperplasia (BPH)", "assay": "Four-year double-blind placebo-controlled clinical study of finasteride, analysed by concomitant calcium channel blocker use", "type": "in vivo, human", "settings": "for Hazard Ratio (95% CI), AUR / Hazard Ratio (95% CI), Precipitated AUR / Hazard Ratio (95% CI), Spontaneous AUR / Hazard Ratio (95% CI), Surgery / Hazard Ratio (95% CI), Surgery and AUR: finasteride vs placebo; for Urologic events: AUR (incidence) / Urologic events: Precipitated AUR (incidence) / Urologic events: Spontaneous AUR (incidence) / Urologic events: Surgery (incidence) / Urologic events: Surgery and AUR (incidence): 5 mg finasteride daily, four-year study", "description": "A total of 3040 men with clinical benign prostatic hyperplasia (BPH) diagnosed on the basis of moderate-to-severe symptoms, a decreased peak urinary flow rate (less than 15 mL/sec with a voided volume of 150 mL or more) and an enlarged prostate gland by digital rectal examination (DRE) were enrolled in a four-year study comparing finasteride with placebo. Men receiving alpha blocking agents or antiandrogens, and men with a history of chronic prostatitis, recurrent urinary tract infections, prostate or bladder cancer or surgery, or a serum prostate specific antigen (PSA) over 10 ng/mL were excluded. Men with serum PSA concentrations between 4.0 and 9.9 ng/mL had to have a negative prostate biopsy prior to enrollment.\nAfter a one-month single-blind placebo lead-in, men were randomly assigned to receive placebo or 5 mg of finasteride (17β-(N-tert-butylcarbamoyl)-3-oxo-4-aza-5α-androst-1-en-3-one)daily in a four year, double-blind placebo-controlled study. BPH-related outcomes including symptoms, bothersomeness, adverse events and urinary flow rates, were assessed every 4 months. Serum PSA was measured every 4 months in the first year and then every 8 months at a central laboratory. Physical examination and routine hematological and serum chemistry tests were performed yearly. Magnetic resonance imaging (MRI) was performed at baseline and subsequently yearly in a subset of 10% of patients. All MRI images were read by a central radiologist blinded to treatment allocation and time of imaging.\nAcute urinary retention (AUR) and surgery for BPH were predefined secondary end-points. The endpoint committee, blinded to treatment group, reviewed all study-related documents related to episodes of acute urinary retention, and all prostate surgeries for BPH, excluding surgery for prostate cancer. The endpoint committee classified episodes of AUR as spontaneous versus precipitated (when contributing factors such as urinary tract infection, surgery anesthesia, ingestion of alpha sympathomimetic drugs or anticholinergics were identified).\nFor a relatively clean comparison, data from patients in categories (a) and (b) were analyzed and patients in category (c) were excluded."}, "5α-reductase 1": {"system": "5α-reductase 1", "settings": "isozyme predominating in sebaceous glands of facial and skin tissue; G. Harris et al. 1992; cited from earlier work"}, "[2]": {"settings": "finasteride treated patients also on calcium channel blockers vs not on calcium channel blockers"}, "[3]": {"settings": "patients who did not take a calcium channel blocker"}, "[4]": {"settings": "patients who took a calcium channel blocker for more than 365 days"}, "[5]": {"settings": "patients who did not take a calcium channel blocker, N = 1181"}, "[6]": {"settings": "patients who took a calcium channel blocker for more than 365 days, N = 236"}}, "note": "“Also recorded” adds a separate entry of the source. Read-outs that look alike come from different tables or passages of the source."}
{"smiles": "CC(C)(C)NC(=O)[C@H]1CC[C@H]2[C@@H]3CC[C@H]4NC(=O)C=C[C@]4(C)[C@H]3CC[C@]12C", "note": "[Finasteride, 17β-(N-tert-butylcarbamoyl)-3-oxo-4-aza-5α-androst-1-ene-3-one]", "values": [{"measurement": "inhibition of 5α-reductase type 2 (human prostate enzyme)", "setting": "5α-reductase 2", "value": "potent inhibitor"}, {"measurement": "inhibition of 5α-reductase type 2 (human prostate enzyme)", "setting": "5α-reductase 2; listed as finasteride", "value": "potently inhibited"}, {"measurement": "rate of improvement in symptom score by month 16", "setting": "[1]; finasteride only group", "value": "continued to increase"}, {"measurement": "change of PSA (prostate specific antigen) versus time in the study", "setting": "[1]; finasteride plus calcium channel blocker for more than 365 days, compared with finasteride only and placebo groups (FIG. 1)", "value": "greater decrease in PSA; also recorded: greatest decrease in PSA"}, {"measurement": "change in Quasi-AUA symptom score versus time in the study", "setting": "[1]; finasteride plus calcium channel blocker for more than 365 days, compared with finasteride only and placebo groups (FIG. 2)", "value": "initally improved much faster; also recorded: greatest decrease in symptom score"}, {"measurement": "change in maximum urinary flow rate versus time in the study", "setting": "[1]; finasteride plus calcium channel blocker for more than 365 days, compared with finasteride only and placebo groups (FIG. 3)", "value": "greater increase in maximum urinary flow rate; also recorded: greatest increase in maximum flow rate after 12 months"}, {"measurement": "change in prostate volume versus time in the study", "setting": "[1]; finasteride plus calcium channel blocker for more than 365 days, compared with finasteride only and placebo groups (FIG. 4)", "value": "greater decrease; also recorded: greatest decrease in prostate volume"}, {"measurement": "rate of improvement in symptom score by month 16", "setting": "[1]; finasteride plus calcium channel blocker group", "value": "decreased rate of improvement in symptom score"}, {"measurement": "incidence of spontaneous acute urinary retention (AUR) (comparison)", "setting": "[1]; [2]", "value": "lower"}, {"measurement": "incidence of urologic surgery (comparison)", "setting": "[1]; [2]", "value": "lower"}, {"measurement": "Hazard Ratio (95% CI), AUR", "setting": "[1]; [3]", "value": "0.44 (0.30 to 0.64)"}, {"measurement": "Hazard Ratio (95% CI), Precipitated AUR", "setting": "[1]; [3]", "value": "0.55 (0.31 to 0.99)"}, {"measurement": "Hazard Ratio (95% CI), Spontaneous AUR", "setting": "[1]; [3]", "value": "0.38 (0.23 to 0.62)"}, {"measurement": "Hazard Ratio (95% CI), Surgery", "setting": "[1]; [3]", "value": "0.42 (0.31 to 0.57)"}, {"measurement": "Hazard Ratio (95% CI), Surgery and AUR", "setting": "[1]; [3]", "value": "0.48 (0.37 to 0.62)"}, {"measurement": "Hazard Ratio (95% CI), AUR", "setting": "[1]; [4]", "value": "0.46 (0.20 to 1.10)"}, {"measurement": "Hazard Ratio (95% CI), Precipitated AUR", "setting": "[1]; [4]", "value": "0.50 (0.19 to 1.31)"}, {"measurement": "Hazard Ratio (95% CI), Spontaneous AUR", "setting": "[1]; [4]", "value": "0.24 (0.05 to 1.21)"}, {"measurement": "Hazard Ratio (95% CI), Surgery", "setting": "[1]; [4]", "value": "0.55 (0.25 to 1.22)"}, {"measurement": "Hazard Ratio (95% CI), Surgery and AUR", "setting": "[1]; [4]", "value": "0.53 (0.28 to 1.00)"}, {"measurement": "Urologic events: AUR (incidence)", "setting": "[1]; [5]", "value": 2.6, "unit": "%"}, {"measurement": "Urologic events: Precipitated AUR (incidence)", "setting": "[1]; [5]", "value": 1.4, "unit": "%"}, {"measurement": "Urologic events: Spontaneous AUR (incidence)", "setting": "[1]; [5]", "value": 1.4, "unit": "%"}, {"measurement": "Urologic events: Surgery (incidence)", "setting": "[1]; [5]", "value": 4.4, "unit": "%"}, {"measurement": "Urologic events: Surgery and AUR (incidence)", "setting": "[1]; [5]", "value": 6.4, "unit": "%"}, {"measurement": "Urologic events: AUR (incidence)", "setting": "[1]; [6]", "value": 3.0, "unit": "%"}, {"measurement": "Urologic events: Precipitated AUR (incidence)", "setting": "[1]; [6]", "value": 2.5, "unit": "%"}, {"measurement": "Urologic events: Spontaneous AUR (incidence)", "setting": "[1]; [6]", "value": 0.4, "unit": "%"}, {"measurement": "Urologic events: Surgery (incidence)", "setting": "[1]; [6]", "value": 3.8, "unit": "%"}, {"measurement": "Urologic events: Surgery and AUR (incidence)", "setting": "[1]; [6]", "value": 5.9, "unit": "%"}, {"measurement": "sensitivity of 5α-reductase type 1 to finasteride", "setting": "5α-reductase 1", "value": "relatively insensitive"}]}
